Assays:
[1] = tested on: Drechslera graminea (syn. Helminthosporium gramineum); test: Drechslera graminea test (barley) / seed treatment; format: in vivo; conditions: dry seed dressing of infected barley seed; evaluation for stripe disease symptoms ca. 3 weeks after sowing; compared with the prior-art comparison substances
From the text: Drechslera graminea-Test (Gerste) / Saatgutbehandlung (syn. Helminthosporium gramineum)
Die Anwendung der Wirkstoffe erfolgt als Trockenbeizmittel. Sie werden zubereitet durch Abstrecken des jeweiligen Wirkstoffes mit Gesteinsmehl zu einer feinpulvrigen Mischung, die eine gleichmäßige Verteilung auf der Saatgutoberfläche gewährleistet.
Zur Beizung schüttelt man das infizierte Saatgut 3 Minuten lang mit dem Beizmittel in einer verschlossenen Glasflasche.
Das Saatgut setzt man in gesiebter, feuchter Standarderde eingebettet, in verschlossenen Petrischalen im Kühlschrank 10 Tage lang einer Temperatur von 4°C aus. Dabei wird die Keimung der Gerste und gegebenenfalls auch der Pilzsporen eingeleitet. Anschließend sät man die vorgekeimte Gerste mit 2 x 50 Korn 3 cm tief in eine Standarderde und kultiviert sie im Gewächshaus bei einer Temperatur von ca. 18°C in Saatkästen, die täglich 15 Stunden dem Licht ausgesetzt werden.
Ca. 3 Wochen nach der Aussaat erfolgt die Auswertung der Pflanzen auf Symptome der Streifenkrankheit.

[2] = tested on: Podosphaera leucotricha; test: Podosphaera test (apple) / protective; format: in vivo; conditions: protective spray on young apple plants; evaluation 9 days after inoculation; compared with the prior-art comparison substances
From the text: Podosphaera-Test (Apfel) / protektiv
• Lösungsmittel: 4,7 Gewichtsteile Aceton • Emulgator: 0,3 Gewichtsteile Alkylarylpolyglykolether
Zur Herstellung einer zweckmäßigen Wirkstoffzubereitung vermischt man 1 Gewichtsteil Wirkstoff mit den angegebenen Mengen Lösungsmittel und Emulgator und verdünnt das Konzentrat mit Wasser auf die gewünschte Konzentration.
Zur Prüfung auf protektive Wirksamkeit bespritzt man jungePflanzen mit der Wirkstoffzubereitung bis zur Tropfnässe. Nach Antrocknen des Spritzbelages werden die Pflanzen durch Bestäuben mit Konidien des Apfelmehltauerregers (Podosphaera leucotricha) inokuliert.
Die Pflanzen werden dann im Gewächshaus bei 23°C und einer relativen Luftfeuchtigkeit von ca. 70 % aufgestellt.
9 Tage nach der Inokulation erfolgt die Auswertung.

Compound: Cl.FC(F)(F)c1cc(Cl)ccc1C1(Cn2ccnc2)OCCO1 [Beispiel 1, 2-(4-Chlor-2-trifluormethyl)-phenyl-2-(imidazol-1-yl)-methyl-1,3-dioxolan-hydrochlorid]
- Wirksamkeit [1]: deutliche überlegenheit in der Wirksamkeit gegenüber dem Stand der Technik
- Wirksamkeit [2]: deutliche Überlegenheit in der Wirksamkeit gegenüber dem Stand der Technik
